Experimental data reported in patent publication US20200405696A1, “INHIBITORS OF INDOLEAMINE 2,3-DIOXYGENASE AND/OR TRYPTOPHAN 2,3-DIOXYGENASE” (IDORSIA PHARMACEUTICALS LTD, priority 2018, published 2020).

How the values were obtained:
[1] = target: T1, Recombinant full-length human IDO1 (Homo sapiens, UniProt P14902); test: IDO1 enzymatic assay (NFK quantified by LCMS); type: biochemical; details: 2 nM enzyme, 5 μM L-tryptophan, pH6.5, 30 minutes pre-incubation at RT; mean values when measured multiple times; read-out: hIDO activity (IC50 in nM)
T1 construct: Recombinant full-length human IDO1 with a N-terminal hexahistidine tag; hexahistidine (His6) (N); made in house; host or cells: E. coli
T1 sequence (P14902 whole entry): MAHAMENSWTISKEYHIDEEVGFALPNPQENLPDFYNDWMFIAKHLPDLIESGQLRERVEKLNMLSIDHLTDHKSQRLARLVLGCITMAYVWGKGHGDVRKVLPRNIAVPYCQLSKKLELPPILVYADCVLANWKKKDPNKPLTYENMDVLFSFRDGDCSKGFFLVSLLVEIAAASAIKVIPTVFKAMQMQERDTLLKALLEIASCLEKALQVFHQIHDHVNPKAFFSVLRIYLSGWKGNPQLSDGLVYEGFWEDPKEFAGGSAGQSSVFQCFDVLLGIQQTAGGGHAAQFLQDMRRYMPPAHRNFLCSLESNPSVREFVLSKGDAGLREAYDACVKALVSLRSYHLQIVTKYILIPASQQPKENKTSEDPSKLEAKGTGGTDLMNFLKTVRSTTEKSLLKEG
Outline: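 IC50 comes from four-parameter logistic fits of duplicate data, with NFK quantified by LCMS and normalized to L-Trp-(indole-d5). Compound (0.5 nM–10 μM) was preincubated 30 min at RT with 2 nM E. coli-expressed IDO1 before a 30 min reaction with 5 μM tryptophan in pH 6.5 buffer containing ascorbate and methylene blue.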

[2] = target: T2, Recombinant human TDO comprising amino acids 19-407 (Homo sapiens, UniProt P48775); test: TDO2 enzymatic assay (NFK quantified by LCMS); type: biochemical; details: 15 nM enzyme, 200 μM L-tryptophan, pH7, 30 minutes pre-incubation at RT; mean values when measured multiple times; read-out: hTDO activity (IC50 in nM)
T2 construct: Recombinant human TDO comprising amino acids 19-407 with a N-terminal hexahistidine tag; hexahistidine (His6) (N); made in house; host or cells: E. coli
T2 sequence (P48775 19-406 limits assumed): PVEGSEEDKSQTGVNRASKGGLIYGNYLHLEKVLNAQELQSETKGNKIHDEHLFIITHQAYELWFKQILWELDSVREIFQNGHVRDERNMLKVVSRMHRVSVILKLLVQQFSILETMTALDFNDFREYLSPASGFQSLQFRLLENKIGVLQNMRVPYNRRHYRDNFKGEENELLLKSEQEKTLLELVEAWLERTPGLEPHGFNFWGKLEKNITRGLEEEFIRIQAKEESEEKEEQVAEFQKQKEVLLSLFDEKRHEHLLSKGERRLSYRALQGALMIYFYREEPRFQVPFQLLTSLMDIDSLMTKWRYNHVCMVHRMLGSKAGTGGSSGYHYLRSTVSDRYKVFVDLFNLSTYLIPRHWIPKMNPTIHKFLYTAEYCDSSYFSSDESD
Outline: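 NFK formed over 30 min at RT from 200 μM L-tryptophan was measured by LCMS, normalized to d5-tryptophan, after compound (0.5 nM–10 μM, duplicates, 0.6% DMSO) was preincubated 30 min with 15 nM recombinant His-tagged TDO 19-407 in phosphate buffer pH 7. IC50 from four-parameter logistic fit; repeats averaged.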

SMILES | IC50 [1] | IC50 [2]
COc1ccc(-n2cc(C(O)c3c(C4(F)CC4)sc4cncn34)nn2)cc1 (racemic) [Example 92, rac-[2-(1-Fluoro-cyclopropyl)-imidazo[5,1-b]thiazol-3-yl]-[1-(4-methoxy-phenyl)-1H-[1,2,3]triazol-4-yl]-methanol] | 32.7 nM | > 10200 nM
CC(=O)Nc1ccc(-n2cc(C(O)c3c(C4CC4)sc4cncn34)nn2)cc1 (racemic) [Example 95, rac-N-(4-{4-[(2-Cyclopropyl-imidazo[5,1-b]thiazol-3-yl)-hydroxy-methyl]-[1,2,3]triazol-1-yl}-phenyl)-acetamide] | 18.3 nM | > 10200 nM
Cc1sc2cncn2c1C(O)c1cnn(-c2ccccc2)c1 (racemic) [Example 96, rac-(2-Methyl-imidazo[5,1-b]thiazol-3-yl)-(1-phenyl-1H-pyrazol-4-yl)-methanol] | 163 nM | 2530 nM
COc1ccc(-n2cc(C(O)c3c(C)sc4cncn34)cn2)cc1 (racemic) [Example 97, rac-[1-(4-Methoxy-phenyl)-1H-pyrazol-4-yl]-(2-methyl-imidazo[5,1-b]thiazol-3-yl)-methanol] | 121 nM | 1940 nM
Cc1sc2cncn2c1C(O)c1cnn(-c2ccccc2)c1C (racemic) [Example 98, rac-(2-Methyl-imidazo[5,1-b]thiazol-3-yl)-(5-methyl-1-phenyl-1H-pyrazol-4-yl)-methanol] | 186 nM | 864 nM
COc1ccc(-n2cc(C(O)c3c(C4CC4)sc4cncn34)cn2)cc1 (racemic) [Example 99, rac-(2-Cyclopropyl-imidazo[5,1-b]thiazol-3-yl)-[1-(4-methoxy-phenyl)-1H-pyrazol-4-yl]-methanol] | 31.8 nM | 3570 nM
OC(c1cnn(-c2ccccc2)c1)c1c(C2CC2)sc2cncn12 (racemic) [Example 100, rac-(2-Cyclopropyl-imidazo[5,1-b]thiazol-3-yl)-(1-phenyl-1H-pyrazol-4-yl)-methanol] | 41.8 nM | 3350 nM
Cc1c(C(O)c2c(C3CC3)sc3cncn23)nnn1-c1ccccc1 (racemic) [Example 101, rac-(2-Cyclopropyl-imidazo[5,1-b]thiazol-3-yl)-(5-methyl-1-phenyl-1H-[1,2,3]triazol-4-yl)-methanol] | 17 nM | 7150 nM
COCCNC(=O)c1ccc(-n2cc(C(O)c3c(C4CC4)sc4cncn34)nn2)cc1 (racemic) [Example 102, rac-4-{4-[(2-Cyclopropyl-imidazo[5,1-b]thiazol-3-yl)-hydroxy-methyl]-[1,2,3]triazol-1-yl}-N-(2-methoxy-ethyl)-benzamide] | 23.2 nM | > 10200 nM
O=C(c1ccc(-n2cc(C(O)c3c(C4CC4)sc4cncn34)nn2)cc1)N1CCOCC1 (racemic) [Example 103, rac-(4-{4-[(2-Cyclopropyl-imidazo[5,1-b]thiazol-3-yl)-hydroxy-methyl]-[1,2,3]triazol-1-yl}-phenyl)-morpholin-4-yl-methanone] | 78.1 nM | > 10200 nM
O=C(Nc1ccc(-n2cc(C(O)c3c(C4CC4)sc4cncn34)nn2)cc1)N1CCOCC1 (racemic) [Example 104, rac-Morpholine-4-carboxylic acid (4-{4-[(2-cyclopropyl-imidazo[5,1-b]thiazol-3-yl)-hydroxy-methyl]-[1,2,3]triazol-1-yl}-phenyl)-amide] | 30.6 nM | > 10200 nM
O=C(NC1CC1)c1ccc(-n2cc(C(O)c3c(C4CC4)sc4cncn34)nn2)cc1 (racemic) [Example 105, rac-N-Cyclopropyl-4-{4-[(2-cyclopropyl-imidazo[5,1-b]thiazol-3-yl)-hydroxy-methyl]-[1,2,3]triazol-1-yl}-benzamide] | 22.1 nM | > 10200 nM
COCCCNC(=O)c1ccc(-n2cc(C(O)c3c(C4CC4)sc4cncn34)nn2)cc1 (racemic) [Example 106, rac-4-{4-[(2-Cyclopropyl-imidazo[5,1-b]thiazol-3-yl)-hydroxy-methyl]-[1,2,3]triazol-1-yl}-N-(3-methoxy-propyl)-benzamide] | 19.6 nM | > 10200 nM
CCNC(=O)c1ccc(-n2cc(C(O)c3c(C4CC4)sc4cncn34)nn2)cc1 (racemic) [Example 107, rac-4-{4-[(2-Cyclopropyl-imidazo[5,1-b]thiazol-3-yl)-hydroxy-methyl]-[1,2,3]triazol-1-yl}-N-ethyl-benzamide] | 16.6 nM | > 10200 nM
N#CCCNC(=O)c1ccc(-n2cc(C(O)c3c(C4CC4)sc4cncn34)nn2)cc1 (racemic) [Example 108, rac-N-(2-Cyano-ethyl)-4-{4-[(2-cyclopropyl-imidazo[5,1-b]thiazol-3-yl)-hydroxy-methyl]-[1,2,3]triazol-1-yl}-benzamide] | 10 nM | > 10200 nM
NC(=O)Nc1ccc(-n2cc(C(O)c3c(C4CC4)sc4cncn34)nn2)cc1 (racemic) [Example 109, rac-(4-{4-[(2-Cyclopropyl-imidazo[5,1-b]thiazol-3-yl)-hydroxy-methyl]-[1,2,3]triazol-1-yl}-phenyl)-urea] | 24 nM | 7110 nM
CCc1sc2cncn2c1C(O)c1cn(-c2ccc(NC(C)=O)cc2)nn1 (racemic) [Example 110, rac-N-(4-{4-[(2-Ethyl-imidazo[5,1-b]thiazol-3-yl)-hydroxy-methyl]-[1,2,3]triazol-1-yl}-phenyl)-acetamide] | 13.1 nM | 4290 nM
CCc1sc2cncn2c1C(O)c1cn(-c2ccc(C(=O)NC)cc2)nn1 (racemic) [Example 111, rac-4-{4-[(2-Ethyl-imidazo[5,1-b]thiazol-3-yl)-hydroxy-methyl]-[1,2,3]triazol-1-yl}-N-methyl-benzamide] | 28.8 nM | > 10200 nM
CCc1sc2cncn2c1C(O)c1cn(-c2ccc3[nH]c(=O)[nH]c3c2)nn1 (racemic) [Example 112, rac-5-{4-[(2-Ethyl-imidazo[5,1-b]thiazol-3-yl)-hydroxy-methyl]-[1,2,3]triazol-1-yl}-1,3-dihydro-benzoimidazol-2-one] | 45.6 nM | 6220 nM
CCNC(=O)Nc1ccc(-n2cc(C(O)c3c(CC)sc4cncn34)nn2)cc1OC (racemic) [Example 113, rac-1-Ethyl-3-(4-{4-[(2-ethyl-imidazo[5,1-b]thiazol-3-yl)-hydroxy-methyl]-[1,2,3]triazol-1-yl}-2-methoxy-phenyl)-urea] | 14.3 nM | 7720 nM
CCc1sc2cncn2c1C(O)c1cn(-c2ccc(C(=O)N(C)C)cc2)nn1 (racemic) [Example 114, rac-4-{4-[(2-Ethyl-imidazo[5,1-b]thiazol-3-yl)-hydroxy-methyl]-[1,2,3]triazol-1-yl}-N,N-dimethyl-benzamide] | 108 nM | > 10200 nM
CCc1sc2cncn2c1C(O)c1cn(-c2ccc(C(=O)NCCCO)cc2)nn1 (racemic) [Example 115, rac-4-{4-[(2-Ethyl-imidazo[5,1-b]thiazol-3-yl)-hydroxy-methyl]-[1,2,3]triazol-1-yl}-N-(3-hydroxy-propyl)-benzamide] | 12.7 nM | > 10200 nM
CCc1sc2cncn2c1C(O)c1cn(-c2ccc(C(N)=O)cc2)nn1 (racemic) [Example 116, rac-4-{4-[(2-Ethyl-imidazo[5,1-b]thiazol-3-yl)-hydroxy-methyl]-[1,2,3]triazol-1-yl}-benzamide] | 12.3 nM | 5210 nM
CCc1sc2cncn2c1C(O)c1cn(-c2ccc(C(=O)N3CCOCC3)cc2)nn1 (racemic) [Example 117, rac-(4-{4-[(2-Ethyl-imidazo[5,1-b]thiazol-3-yl)-hydroxy-methyl]-[1,2,3]triazol-1-yl}-phenyl)-morpholin-4-yl-methanone] | 93.3 nM | > 10200 nM
CCc1sc2cncn2c1C(O)c1cn(-c2ccc(C(=O)NCCO)cc2)nn1 (racemic) [Example 118, rac-4-{4-[(2-Ethyl-imidazo[5,1-b]thiazol-3-yl)-hydroxy-methyl]-[1,2,3]triazol-1-yl}-N-(2-hydroxy-ethyl)-benzamide] | 15.8 nM | 9550 nM
CCc1sc2cncn2c1C(O)c1cn(-c2ccc(C(=O)NCCN(C)C)cc2)nn1 (racemic) [Example 119, rac-N-(2-Dimethylamino-ethyl)-4-{4-[(2-ethyl-imidazo[5,1-b]thiazol-3-yl)-hydroxy-methyl]-[1,2,3]triazol-1-yl}-benzamide] | 133 nM | 9720 nM
CCc1sc2cncn2c1C(O)c1cn(-c2ccc(NC(=O)C(C)(C)C)cc2)nn1 (racemic) [Example 120, rac-N-(4-{4-[(2-Ethyl-imidazo[5,1-b]thiazol-3-yl)-hydroxy-methyl]-[1,2,3]triazol-1-yl}-phenyl)-2,2-dimethyl-propionamide] | 11 nM | > 10200 nM
CCc1sc2cncn2c1C(O)c1cn(-c2ccc(NC(=O)N3CCOCC3)cc2)nn1 (racemic) [Example 121, rac-Morpholine-4-carboxylic acid (4-{4-[(2-ethyl-imidazo[5,1-b]thiazol-3-yl)-hydroxy-methyl]-[1,2,3]triazol-1-yl}-phenyl)-amide] | 32 nM | 7720 nM
